What was measured:
[1] = tested on: GR*-eGFP in Saos-2(GIGT) cells; experiment: Glucocorticoid-induced eGFP translocation; type: cell-based, human; conditions: 1 μM, 30 min
Saos-2 cells = experiment: FCS-based Lys9^R endosomal leakage assay; type: cell-based, human; conditions: for Lys9^R delivery efficiency (DE), cytosol / Lys9^R delivery efficiency (DE), nucleus: 60 min, FCS, n > 10 cells
[2] = tested on: eGFP-hGal3 in Saos-2 cells; experiment: Galectin recruitment assay for endosomal damage; type: cell-based, human
[3] = tested on: eGFP-hGal8 in Saos-2 cells; experiment: Galectin recruitment assay for endosomal damage; type: cell-based, human; conditions: RNAiMAX 16 μL/mL or LLOMe 1 mM, 1 h
[4] = In vitro FCS diffusion measurement; type: physicochemical; conditions: Milli-Q water
[5] = 2,500 cells per well in transfection medium

C[C@@H]1C[C@H]2[C@@H]3CCC4=CC(=O)C=C[C@]4(C)[C@@]3(F)[C@@H](O)C[C@]2(C)[C@@]1(O)C(=O)CO [Dex, dexamethasone]
translocation ratio (TR) [1, 5]: 3.4 ± 0.40

COC(=O)[C@H](CC(C)C)NC(=O)[C@@H](N)CC(C)C [LLOMe, L-leucyl-L-leucine methyl ester]
Lys9^R delivery efficiency (DE), cytosol (Saos-2 cells; LLOMe 0.125 mM, no agent: 3): 3% | Lys9^R delivery efficiency (DE), nucleus (Saos-2 cells; LLOMe 0.125 mM, no agent: 4): 6% | Lys9^R delivery efficiency (DE), cytosol (Saos-2 cells; LLOMe 0.25 mM): 4% | Lys9^R delivery efficiency (DE), nucleus (Saos-2 cells; LLOMe 0.25 mM): 12% | Lys9^R delivery efficiency (DE), cytosol (Saos-2 cells; LLOMe 0.5 mM): 8% | Lys9^R delivery efficiency (DE), nucleus (Saos-2 cells; LLOMe 0.5 mM): 12% | Lys9^R delivery efficiency (DE), cytosol (Saos-2 cells; LLOMe 1.0 mM): 9% | Lys9^R delivery efficiency (DE), nucleus (Saos-2 cells; LLOMe 1.0 mM): 12% | endosomal leakage of Lys9^R (Saos-2 cells; LLOMe titration up to 1 mM, 1 h): no detectable endosomal leakage | vesicular staining compared to the total cell area ([2]; LLOMe 1 mM, 1 hour, corresponds to ERC 400.0): 4% | ERC value routinely obtained ([2]; LLOMe 1 mM, 1 hour, untreated cells around 0.0): ~400.0 | increase of average ERC over untreated cells, eGFP-hGal3 ([2]; RNAiMAX 16 μL/mL or LLOMe 1 mM, 1 h): 147 fold | increase of average ERC over untreated cells, eGFP-hGal8 [3]: 68 fold

Ac-KKKKKKKKK-NH2 [Lys9^UL]
Average τdiff in vitro at 25 °C [4]: 0.064 ± 0.001 ms | Measured D at 25 °C [4]: 206 ± 3 μm^2 s^-1

K^Dex–GPSQPTYPGDDAPVRDLIRFYRDLRRYLNVVTR HRY-CONH2 [1^Dex]
translocation ratio (TR) [1, 5]: 3.0 ± 0.40 | mean translocation ratio (TR) ([1]; cells transfected with non-targeting siRNA, non-treated 1.2 ± 0.1): 2.4 ± 0.3 | translocation ratio (TR) ([1]; complete media): around 2.0 | translocation ratio (TR) ([1]; transfection media): around 3.0

K^Dex-WYSCNVCGKAFVLSRHLNRHLRVHRRAT-CONH2 [2^Dex]
translocation ratio (TR) [1, 5]: 3.0 ± 0.090 | translocation ratio (TR) ([1]; complete media): around 2.0 | translocation ratio (TR) ([1]; transfection media): around 3.0

Reference: doi:10.1101/374926v1 (bioRxiv, 2018)
